{"source": "patent US11834417B2", "about": "“Compositions for the treatment of hypertension and/or fibrosis” (Vectus Biosystems Limited, priority 2016, dated 2023)", "key": {"[1]": {"tested_on": "spontaneous hypertensive rats (SHR)", "assay": "Myocardial fibrosis quantitation (Masson's Trichrome) in SHR on a 2.2% salt diet", "format": "in vivo, rat", "conditions": "4 weeks", "text": "(§1) Fourteen week old spontaneous hypertensive rats (SHR; Australian Animal Resources Centre, WA) on a 2.2% salt diet (Glenn Forrest Stockfeeders, WA) were randomized to the following treatment groups: 14-week control, or VB0002 infusion (20 pmol/kg/min in 20% DMSO) or vehicle control infusion (20% DMSO) for 4 weeks. VB0002 and vehicle control infusions were via Alzet osmotic minipump, which was inserted under general anaesthesia (Isoflurane 3% in oxygen) at 14 weeks.\nFourteen week old spontaneous hypertensive rats on a 2.2% salt diet were also randomized to the following treatment groups: 14-week control, or VB0003 administration (10, 100 or 500 pmol/kg/min in 5% ethanol), VB0005 administration (100 pmol/kg/min in 5% ethanol) or drinking solution (5% ethanol) administration for 4 weeks.\n(§2) The 14-week control group were anaesthetized using isoflurane (3%) delivered in oxygen, then had blood sampled and hearts and kidneys harvested for quantitation of fibrosis. The remaining groups were weighed and had blood pressure measured by tail cuff plethysmography (ADI Instruments) twice weekly for a further 4 weeks. After 4 weeks treatment, rats were anaesthetized and samples collected as per the 14-week control group. Results are mean±sem for n=5 rats per group.\nFor quantitation of fibrosis, tissue slices ≤3 mm thick were fixed in 10% buffered formalin for 24 hours, processed and embedded in paraffin. Three μm transverse sections were stained using Masson's Trichrome. A minimum of 20 random fields at 40× magnification from transverse sections ([…]) were digitized. The degree of fibrosis was determined as a percent of field area of each digitized image using Image-Pro Plus V.5 (Media Cybernetics, Bethesda, Md., USA), and then averaged to determine the level of fibrosis for each rat."}, "[2]": {"tested_on": "spontaneous hypertensive rats (SHR)", "assay": "Systolic blood pressure by tail cuff plethysmography in SHR on a 2.2% salt diet", "format": "in vivo, rat", "text": "as §1, with “14 weeks. […]” for “14 weeks.”\nas §2"}, "[3]": {"conditions": "100 pmol/kg/min in drinking solution (5% ethanol), compared to 14 week controls"}, "[4]": {"conditions": "100 pmol/kg/min in drinking solution (5% ethanol), compared to 18 week controls"}, "[5]": {"conditions": "in 5% ethanol in the drinking solution for 4 weeks (FIG. 9:), compared to 18 week controls (p<0.0005)"}}}
{"smiles": "CC(O)Cc1c(-c2ccccc2)ncn1Cc1cccc(O)c1.Cl", "note": "(centres unmarked)", "values": [{"measurement": "melting point", "value": "84 to 88", "unit": "°C"}]}
{"smiles": "NC(=O)CC[C@H]1CN(c2ccccc2)CCN1c1cccc(O)c1", "note": "[VB0005, (S)-3-[1-(3-Hydroxy)phenyl-4-phenylpiperazin-2-yl]propanamide]", "values": [{"measurement": "Myocardial fibrosis", "setting": "[1]; [3]", "value": "reduced"}, {"measurement": "Myocardial fibrosis", "setting": "[1]; [4]", "value": "reduced"}, {"measurement": "Systolic blood pressure", "setting": "[2]; [5]", "value": "reduced"}]}
{"smiles": "NC(=O)Cc1c(Cc2ccccc2)ncn1Cc1cccc(O)c1", "note": "[VB0002, 2-[4-Benzyl-1-(3-hydroxybenzyl)-1H-imidazol-5-yl]acetamide]", "values": [{"measurement": "Myocardial fibrosis", "setting": "[1]; 20 pmol/kg/min infusion via osmotic minipump, compared to 14 week controls (FIG. 10)", "value": "reduced"}, {"measurement": "Myocardial fibrosis", "setting": "[1]; 20 pmol/kg/min infusion via osmotic minipump, compared to 18 week controls (FIG. 10)", "value": "reduced"}, {"measurement": "melting point", "value": "249 °C (dec.)"}, {"measurement": "Systolic blood pressure", "setting": "[2]; in 20% DMSO intravenously via osmotic minipump for 4 weeks, compared to 18 week controls (FIG. 8, p<0.005)", "value": "reduced"}]}
{"smiles": "CC(O)Cc1c(-c2ccccc2)ncn1Cc1cccc(O)c1", "note": "(centres unmarked) [VB0003, 3-[5-(2-hydroxypropyl)-4-phenyl-imidazol-1-ylmethyl]-phenol]", "values": [{"measurement": "Myocardial fibrosis", "setting": "[1]; 10 pmol/kg/min in drinking solution (5% ethanol), compared to 18 week controls", "value": "reduced"}, {"measurement": "Myocardial fibrosis", "setting": "[1]; [3]", "value": "reduced"}, {"measurement": "Myocardial fibrosis", "setting": "[1]; [4]", "value": "reduced"}, {"measurement": "Myocardial fibrosis", "setting": "[1]; 500 pmol/kg/min in drinking solution (5% ethanol), compared to 14 week controls", "value": "reduced"}, {"measurement": "Myocardial fibrosis", "setting": "[1]; 500 pmol/kg/min in drinking solution (5% ethanol), compared to 18 week controls", "value": "reduced"}, {"measurement": "Systolic blood pressure", "setting": "[2]; [5]", "value": "reduced"}]}
